# Assay results from paper PMC7939570, “Discovery of potent histone deacetylase inhibitors with modified phenanthridine caps” (Journal of Enzyme Inhibition and Medicinal Chemistry, 2021).
# Legend:
# [1] = system: Hela nucleus extract containing a mixture of HDAC isoforms; assay: HDAC enzyme inhibitory assay with Hela nucleus extract; type: biochemical; settings: 1 µM, mean of three experiments
# Method: The HDAC enzyme inhibitory activities of synthesised compounds were investigated by utilising Hela nucleus extract containing a mixture of HDAC isoforms. Percentage inhibitory rate was used to determine the activity of tested compounds (Tables 1 and 2). The Fa series compounds were firstly synthesised for the activity screening. […] To investigate whether aromatic linker could improve the inhibitory activities, structural modifications were performed on current molecules.
# [2] = system: U937 cells; assay: MTT antiproliferative assay, U937 cells; settings: U937 cells, MTT, mean of three experiments; for inhibition at 1 µM: Homo sapiens, U-937, read-out: U937 percentage inhibitory rate, 1 µM; for U937 percentage inhibitory rate: 1 µM
Molecule,HDACs percentage inhibitory rate [1] [%],inhibition at 1 µM [2] [%],U937 percentage inhibitory rate [2] [%]
"O=C(CCCNC(=O)c1ccc(-c2cc3c(cc2NC(=O)c2ccc(F)cc2)OCO3)cc1)NO [Fa-3, 4-{4-[6-(4-Fluoro-benzoylamino)-benzo[1,3]dioxol-5-yl]-benzoylamino}-N-Hydroxy-butyramide]",9.22 ± 2.28,19.4 ± 1.44,–
"O=C(CCCNC(=O)c1ccc(-c2cc3c(cc2NC(=O)c2cccc(Br)c2)OCO3)cc1)NO [Fa-1, 4-{4-[6–(3-Bromo-benzoylamino)-benzo[1,3]dioxol-5-yl]-benzoylamino}-N-Hydroxy-butyramide]",6.63 ± 1.28,21 ± 0.55,–
"O=C(CCCNC(=O)c1ccc(-c2cc3c(cc2NC(=O)c2ccccc2C(F)(F)F)OCO3)cc1)NO [Fa-6, 4-{4-[6-(2-Trifluoromethyl-benzoylamino)-benzo[1,3]dioxol-5-yl]-benzoylamino}-N-Hydroxy-butyramide]",24.88 ± 4.88,15 ± 2.47,–
"COc1ccccc1C(=O)Nc1cc2c(cc1-c1ccc(C(=O)NCCCC(=O)NO)cc1)OCO2 [Fa-2, 4-{4-[6–(2-Methoxy-benzoylamino)-benzo[1,3]dioxol-5-yl]-benzoylamino}-N-Hydroxy-butyramide]",15.23 ± 3.23,19.2 ± 1.09,–
"4-{4-[6–(3-Nitro-benzoylamino)-benzo[1,3]dioxol-5-yl]-benzoylamino}-N-Hydroxy-butyramide [Fa-17]",52.44 ± 6.17,–,13.42 ± 0.81
"CC(C)(C)OC(=O)Nc1cc2c(cc1-c1ccc(C(=O)NCc3ccc(C(=O)NO)cc3)cc1)OCO2 [Fb-13, 4-{[4–(6-Tert-Butoxycarbonylamino-benzo[1,3]dioxol-5-yl)-benzoylamino]-methyl}-N-Hydroxy-benzamide]",48.09 ± 3.01,75.5 ± 2.4,–
"O=C(CCCNC(=O)c1ccc(-c2cc3c(cc2NC(=O)c2ccccc2F)OCO3)cc1)NO [Fa-8, 4-{4-[6-(2-Fluoro-benzoylamino)-benzo[1,3]dioxol-5-yl]-benzoylamino}-N-Hydroxy-butyramide]",5.32 ± 1.72,19.9 ± 1.96,–
"O=C(CCCNC(=O)c1ccc(-c2cc3c(cc2NC(=O)c2cccc(F)c2)OCO3)cc1)NO [Fa-5, 4-{4-[6-(3-Fluoro-benzoylamino)-benzo[1,3]dioxol-5-yl]-benzoylamino}-N-Hydroxy-butyramide]",–,19.9 ± 1.33,33.95 ± 1.70
"O=C(CCCNC(=O)c1ccc(-c2cc3c(cc2NC(=O)c2cccc(C(F)(F)F)c2)OCO3)cc1)NO [Fa-9, 4-{4-[6-(3-Trifluoromethyl-benzoylamino)-benzo[1,3]dioxol-5-yl]-benzoylamino}-N-Hydroxy-butyramide]",18.92 ± 1.30,20.45 ± 0.05,–
"O=C(CCCNC(=O)c1ccc(-c2cc3c(cc2NC(=O)c2ccccc2)OCO3)cc1)NO [Fa-11, 4-[4–(6-Benzoylamino-benzo[1,3]dioxol-5-yl)-benzoylamino]-N-Hydroxy-butyramide]",14.32 ± 2.19,25.6 ± 1.76,–
"Cc1ccccc1C(=O)Nc1cc2c(cc1-c1ccc(C(=O)NCCCC(=O)NO)cc1)OCO2 [Fa-4, 4-{4-[6-(2-Methyl-benzoylamino)-benzo[1,3]dioxol-5-yl]-benzoylamino}-N-Hydroxy-butyramide]",13.65 ± 4.04,18.2 ± 2.91,–
"O=C(CCCNC(=O)c1ccc(-c2cc3c(cc2NC(=O)c2ccccc2Cl)OCO3)cc1)NO [Fa-10, 4-{4-[6-(2-Chloro-benzoylamino)-benzo[1,3]dioxol-5-yl]-benzoylamino}-N-Hydroxy-butyramide]",23.41 ± 1.95,23 ± 1.23,–
"CCc1ccc(C(=O)Nc2cc3c(cc2-c2ccc(C(=O)NCCCC(=O)NO)cc2)OCO3)cc1 [Fa-7, 4-{4-[6-(4-Ethyl-benzoylamino)-benzo[1,3]dioxol-5-yl]-benzoylamino}-N-Hydroxy-butyramide]",25.79 ± 5.79,22.2 ± 2.28,–

# More lines, main results first:
HDACs percentage inhibitory rate [1] [%],Molecule,inhibition at 1 µM [2] [%],U937 percentage inhibitory rate [2] [%]
35.97 ± 3.07,"Cc1ccccc1C(=O)Nc1cc2c(cc1-c1ccc(C(=O)NCc3ccc(C(=O)NO)cc3)cc1)OCO2 [Fb-9, 4-({4-[6–(2-Methyl-benzoylamino)-benzo[1,3]dioxol-5-yl]-benzoylamino}-methyl)-N-Hydroxy-benzamide]",69.2 ± 3.08,–
31.47 ± 3.47,"O=C(CCCNC(=O)c1ccc(-c2cc3c(cc2NC(=O)c2ccc(F)cc2C(F)(F)F)OCO3)cc1)NO [Fa-18, 4-{4-[6–(4-Fluoro-2-trifluoromethyl-benzoylamino)-benzo[1,3]dioxol-5-yl]-benzoylamino}-N-Hydroxy-butyramide]",10.3 ± 1.31,–
17.69 ± 3.52,"O=C(CCCNC(=O)c1ccc(-c2cc3c(cc2NC(=O)c2ccc(C(F)(F)F)cc2)OCO3)cc1)NO [Fa-12, 4-{4-[6–(4-Trifluoromethyl-benzoylamino)-benzo[1,3]dioxol-5-yl]-benzoylamino}-N-Hydroxy-butyramide]",48.5 ± 3.98,–
20.29 ± 0.29,"O=C(CCCNC(=O)c1ccc(-c2cc3c(cc2NC(=O)c2ccc(F)c(C(F)(F)F)c2)OCO3)cc1)NO [Fa-23, 4-{4-[6–(4-Fluoro-3-trifluoromethyl-benzoylamino)-benzo[1,3]dioxol-5-yl]-benzoylamino}-N-Hydroxy-butyramide]",17.4 ± 3.35,–
49.47 ± 9.25,"O=C(NO)c1ccc(CNC(=O)c2ccc(-c3cc4c(cc3NC(=O)c3cccc(Br)c3)OCO4)cc2)cc1 [Fb-10, 4-({4-[6–(3-Bromo-benzoylamino)-benzo[1,3]dioxol-5-yl]-benzoylamino}-methyl)-N-Hydroxy-benzamide]",86.2 ± 4.18,–
21.14 ± 2.55,"CCCc1ccc(C(=O)Nc2cc3c(cc2-c2ccc(C(=O)NCCCC(=O)NO)cc2)OCO3)cc1 [Fa-20, 4-{4-[6–(4-Propyl-benzoylamino)-benzo[1,3]dioxol-5-yl]-benzoylamino}-N-Hydroxy-butyramide]",12.2 ± 0.24,–
57.50 ± 2.92,"O=C(NO)c1ccc(CNC(=O)c2ccc(-c3cc4c(cc3NC(=O)c3ccccc3)OCO4)cc2)cc1 [Fb-1, 4-{[4–(6-Benzoylamino-benzo[1,3]dioxol-5-yl)-benzoylamino]-methyl}-N-Hydroxy-benzamide]",65.2 ± 0.29,–
58.84 ± 2.40,"Nc1cc2c(cc1-c1ccc(C(=O)NCc3ccc(C(=O)NO)cc3)cc1)OCO2 [Fb-14, 4-{[4–(6-Amino-benzo[1,3]dioxol-5-yl)-benzoylamino]-methyl}-N-Hydroxy-benzamide]",75.6 ± 2.28,–
58.36 ± 5.06,"O=C(NO)c1ccc(CNC(=O)c2ccc(-c3cc4c(cc3NC(=O)c3cccc(F)c3)OCO4)cc2)cc1 [Fb-6, 4-({4-[6–(3-Fluoro-benzoylamino)-benzo[1,3]dioxol-5-yl]-benzoylamino}-methyl)-N-Hydroxy-benzamide]",92.2 ± 2.72,–
59.61 ± 6.64,"O=C(NO)c1ccc(CNC(=O)c2ccc(-c3cc4c(cc3NC(=O)c3ccccc3Cl)OCO4)cc2)cc1 [Fb-12, 4-({4-[6–(2-Chloro-benzoylamino)-benzo[1,3]dioxol-5-yl]-benzoylamino}-methyl)-N-Hydroxy-benzamide]",76.6 ± 6.97,–
28.72 ± 4.74,"O=C(CCCNC(=O)c1ccc(-c2cc3c(cc2NC(=O)c2cc(F)cc(F)c2)OCO3)cc1)NO [Fa-14, 4-{4-[6–(3,5-Difluoro-benzoylamino)-benzo[1,3]dioxol-5-yl]-benzoylamino}-N-Hydroxy-butyramide]",9.84 ± 0.71,–
47.09 ± 0.62,"O=C(NO)c1ccc(CNC(=O)c2ccc(-c3cc4c(cc3NC(=O)c3cccc(C(F)(F)F)c3)OCO4)cc2)cc1 [Fb-8, 4-({4-[6–(3-Trifluoromethyl-benzoylamino)-benzo[1,3]dioxol-5-yl]-benzoylamino}-methyl)-N-Hydroxy-benzamide]",78.2 ± 3.05,–
24.43 ± 2.90,"O=C(CCCNC(=O)c1ccc(-c2cc3c(cc2NC(=O)c2ccc(F)c(Cl)c2)OCO3)cc1)NO [Fa-19, 4-{4-[6–(3-Chloro-4-fluoro-benzoylamino)-benzo[1,3]dioxol-5-yl]-benzoylamino}-N-Hydroxy-butyramide]",15.8 ± 2.29,–
48.27 ± 0.62,"O=C(NO)c1ccc(CNC(=O)c2ccc(-c3cc4c(cc3NC(=O)c3ccc(F)cc3)OCO4)cc2)cc1 [Fb-11, 4-({4-[6–(4-Fluoro-benzoylamino)-benzo[1,3]dioxol-5-yl]-benzoylamino}-methyl)-N-Hydroxy-benzamide]",59.2 ± 6.95,–
44.51 ± 0.22,"COc1ccc(C(=O)Nc2cc3c(cc2-c2ccc(C(=O)NCCCC(=O)NO)cc2)OCO3)cc1 [Fa-13, 4-{4-[6–(4-Methoxy-benzoylamino)-benzo[1,3]dioxol-5-yl]-benzoylamino}-N-Hydroxy-butyramide]",88.9 ± 5,–
24.89 ± 4.89,"O=C(CCCNC(=O)c1ccc(-c2cc3c(cc2NC(=O)c2cc(F)ccc2F)OCO3)cc1)NO [Fa-22, 4-{4-[6–(2,5-Difluoro-benzoylamino)-benzo[1,3]dioxol-5-yl]-benzoylamino}-N-Hydroxy-butyramide]",4.73 ± 0.64,–
47.03 ± 15.05,"O=C(NO)c1ccc(CNC(=O)c2ccc(-c3cc4c(cc3NC(=O)c3ccc(C(F)(F)F)cc3)OCO4)cc2)cc1 [Fb-7, 4-({4-[6–(4-Trifluoromethyl-benzoylamino)-benzo[1,3]dioxol-5-yl]-benzoylamino}-methyl)-N-Hydroxy-benzamide]",84.9 ± 1.68,–
